What was measured:
PC12 cells [1] = test: MTT cell viability of corticosterone (CORT)-induced PC12 cells (in vitro depression model); details: for Cell viability (%): PC12 cells pretreated with 600 μM corticosterone 24 h; for Cell viability (%) / viability at 0.625 µM / Culture time needed to exert effect on cell survival: drug 0.625 uM; for Cell viability (%) / viability at 0.625 µM: 24 h culture, average of three independent experiments; for Cell viability (%) / viability at 0.625 µM / Effect on death rate of cells caused by CORT (cell survival rate): MTT; for viability at 0.625 µM: PC-12, read-out: Cell viability (%), PC12 cells pretreated with 600 μM corticosterone 24 h; for Effect on death rate of cells caused by CORT (cell survival rate): 0.625-20 uM at 12 h, 0.625 uM at 12, 24, 48 h, A and B of FIG. 2; for Culture time needed to exert effect on cell survival: B of FIG. 2
Experimental: PC12 cells are purchased from Procell Life Science & Technology Co., Ltd. (Wuhan, China). All cell culture reagents are purchased from Life Technologies (Grand Island, Nebraska, USA). Cells are cultured in Dulbecco's modified Eagle's medium (Gibco, USA) including 10% fetal calf serum (Gibco, USA) at 37° C. in an incubator including 5% CO2.
Corticosterone (CORT)-induced PC12 cells are usually used to establish the depression model in vitro.
Cell viability is measured by using MTT [3-(4,5-dimethyl-2-thiazolyl)-2,5-diphenyl-2H-tetrazolium bromide].

GR = test: Western blotting of GR in CORT-treated PC12 cells; format: cell-based; details: Western blot; 0.625 uM; A and B of FIG. 3
Experimental: (§1) PC12 cells are lysed in RIPA lysis solution including 1% phenylmethylsulfonyl fluoride (PMSF) on ice for 30 minutes, the supernatant solution is collected and centrifuged, and the protein concentration of the supernatant solution is measured by a BCA assay kit (Beyotime, Shanghai). Protein samples are loaded onto 10% SDS-polyacrylamide gel electrophoresis and then further transferred to PVDF membrane (Millipore, MA, USA). The PVDF membrane is blocked with 5% non-fat milk and then incubated with a single primary antibody at 4° C. overnight. After washing with Tris-buffered saline containing Tween-20 (0.1%) (TBST), the PVDF membrane is incubated with secondary antibodies at room temperature. The PVDF membrane is analyzed by ECL reagents (Beyotime, Shanghai) and a BIO-RAD ChemiDoc XRS system. Protein band intensity is performed by Image J software (The National Institutes of Health, Bethesda, MD, USA).

cofilin-1 = test: Western blotting of cofilin-1 in CORT-treated PC12 cells; format: cell-based; details: Western blot; 0.625 uM; A and B of FIG. 3
Experimental: as §1

NF-κB = test: Western blotting of NF-κB in CORT-treated PC12 cells; format: cell-based; details: Western blot; 0.625 uM; A and B of FIG. 3
Experimental: as §1

PC12 cells [2] = test: Hoechst and PI staining of PC12 cell apoptosis; format: cell-based; details: drug 1.0 uM, 48 hours
Experimental: PC12 cell apoptosis is detected by Hoechst and PI staining. Hoechst can bind to cell nucleus of living cells, while PI (propidium iodide) can bind to the nucleuses of dead cells. The PC12 cells are plated in 12-well plates, and after being treated with drugs for 48 hours, the PC12 cells are stained with the nuclear dye Hoechst. The PC12 cells are washed twice with PBS and continued to be incubated with 10 mg/L Hoechst in the incubator for 20 min, For PI staining, the PC12 cells are incubated with a working solution including PI (final concentration 1 μg/mL) at room temperature for 10 min […] The PC12 cells are observed and photographed by a fluorescence microscope (Zeiss, Germany), and the results are shown in FIGS. 2 and 3. Blue fluorescence (white background) represents living cells, and red fluorescence (black background) represents dead cells.

Compound	viability at 0.625 µM (PC12 cells [1]; Rattus norvegicus) [%]	PC12 cell death / apoptosis caused by corticosterone (blue and red fluorescence number) (PC12 cells [2])	melting point [°C]	also measured
C=C[C@@H]1CN(Cc2ccccc2)C(=O)c2cnc(N3CCOCC3)nc2N1c1ccccc1 [(R)-I-1, (R)-6-benzyl-2-morpholino-9-phenyl-8-vinyl-6,7,8,9-tetrahydro-5H-pyrimido [4,5-e][1,4]diazapine-5-one]				Cell viability (%) (PC12 cells [1]): 82.8 ± 2.5%
C=C[C@@H]1CN(Cc2ccccc2)C(=O)c2cnc(N3CCOCC3)nc2N1Cc1ccccc1 [(R)-I-8, (R)-6,9-dibenzyl-2-morpholinyl-8-vinyl-6,7,8,9-tetrahydro-5H-pyrimido[4,5-e][1.4]diazepine-5-one]				Cell viability (%) (PC12 cells [1]): 82.0 ± 2.0%
C=C[C@@H]1CN(Cc2ccccc2)C(=O)c2cnc(OC)nc2N1c1ccccc1 [(R)-I-9, (R)-6-benzyl-2methoxy-9-phenyl-8-vinyl-6,7,8,9-tetrahydro-5H-pyrimido[4,5-e][1,4]diazepin-5-one]	85.4 ± 2.9	can reverse the massive apoptosis of the PC12 cells caused by corticosterone		Expression of GR (GR): promote the expression of GR; Overexpression of cofilin-1 (cofilin-1): inhibit the overexpression; Overexpression of NF-κB (NF-κB): inhibit the overexpression
C=C[C@@H]1CN(Cc2ccccc2)C(=O)c2cnc(-c3ccccc3)nc2N1c1ccccc1 [(R)-I-13, (R)-6-benzyl-2,9-diphenyl-8-vinyl-6,7,8,9-tetrahydro-5H-pyrimido[4,5-e][1,4]diazepine-5-one]	81.9 ± 4.5		212.7 to 213.6	
C=C[C@@H]1CN(Cc2ccccc2)C(=O)c2cnc(Nc3ccccc3)nc2N1c1ccccc1 [(R)-I-18, (R)-6-benzyl-9-phenyl-2-anilino-8-vinyl-6,7,8,9-tetrahydro-5H-pyrimido[4,5-e][1,4]diazepine-5-one]	75.2 ± 4.4		232.1 to 232.3	
C=C[C@H]1CN(Cc2ccccc2)C(=O)c2cnc(N3CCOCC3)nc2N1CCC [(S)-I-5, (S)-6-benzyl-2-morpholino-9-propyl-8-vinyl-6,7,8,9-tetrahydro-5H-pyrimido[4,5-e][1,4]diazepine-5-one]	89.4 ± 2.9			
C=C[C@H]1CN(Cc2ccccc2)C(=O)c2cnc(C)nc2N1c1ccccc1 [(S)-I-10, (S)-6-benzyl-2-methyl-9-phenyl-8-vinyl-6,7,8,9-tetrahydro-5H-pyrimido[4,5-e][1,4]diazepin-5-one]	97.8 ± 3.4	higher number of blue fluorescence than (R)-I-9		
C=C[C@H]1CN(Cc2ccccc2)C(=O)c2cnc(N3CCN(C)CC3)nc2N1c1ccccc1 [(S)-I-11, (S)-6-benzyl-2-(4-methyl-1-piperazinyl)-9-phenyl-8-vinyl-6,7,8,9-tetrahydro-5H-pyrimido[4,5-e]diazepine-5-one]		can reduce cell death		Effect on death rate of cells caused by CORT (cell survival rate) (PC12 cells [1]): can effectively reduce the death rate of cells caused by CORT; Culture time needed to exert effect on cell survival (PC12 cells [1]): 12 h
C=C[C@H]1CN(Cc2ccccc2)C(=O)c2cnc(N3CCCC3)nc2N1c1ccccc1 [(S)-I-12, (S)6-benzyl-9-phenyl-2-(1-tetrahydropyrrolyl)-8-vinyl-6,7,8,9-tetrahydro-5H-pyrimido[4,5-e][1,4]diazepin-5-one]	98.6 ± 3.1		153.8 to 154.3	
C=C[C@H]1CN(Cc2ccccc2)C(=O)c2cnc(-c3cccc4ccccc34)nc2N1c1ccccc1 [(S)-I-14, (S)-6-benzyl-2-(1-naphthyl)-9-phenyl-8-vinyl-6,7,8,9-tetrahydro-5H-pyrimido[4,5-e][1,4]diazepin-5-one]	88.1 ± 4.7		227.2 to 227.4	Survival rate of PC12 cells, comparison of chiral configurations (PC12 cells [1]; 0.625 uM, B, C and D of FIG. 4): can increase the survival rate better than their corresponding racemates
C=C[C@H]1CN(Cc2ccccc2)C(=O)c2cnc(-c3cnccc3OC)nc2N1c1ccccc1 [(S)-I-17, (S)-6-benzyl-2-(4-methoxy-3-pyridyl)-9-phenyl-8-vinyl-6,7,8,9-tetrahydro-5H-pyrimido[4,5-e][1,4]diazepin-5-one]	96.9 ± 2.7	can reverse the massive apoptosis of the PC12 cells caused by corticosterone		Expression of GR (GR): promote the expression of GR; Overexpression of cofilin-1 (cofilin-1): inhibit the overexpression; Overexpression of NF-κB (NF-κB): inhibit the overexpression
C[C@]12C[C@H](O)[C@H]3[C@@H](CCC4=CC(=O)CC[C@@]43C)[C@@H]1CC[C@@H]2C(=O)CO [CORT, corticosterone, reference compound]				Cell viability (%) with corticosterone alone (PC12 cells [1]; PC12 cells, 600 μM corticosterone, 24 hours, no drug (model group)): 60.5 ± 3.6%; viability at 600 µM (PC12 cells [1]; Rattus norvegicus, PC-12, 24 h, read-out: Cell viability (%) with corticosterone alone, PC12 cells, 600 μM corticosterone, 24 hours, no drug (model group)): 60%
C=C[C@@H]1CN(Cc2ccccc2)C(=O)c2cnc(-c3ccco3)nc2N1c1ccccc1 [Compound I-16, (R)-6-benzyl-2-(2-furyl)-9-phenyl-8-vinyl-6,7,8,9-tetrahydro-5H-pyrimido[4,5-e][1,4]diazepin-5-one]			178.5 to 178.6	
CNCCC(Oc1ccc(C(F)(F)F)cc1)c1ccccc1 (stereo not drawn) [fluoxetine, reference compound]	76.8 ± 6.4	can reduce cell death		Effect on death rate of cells caused by CORT (cell survival rate) (PC12 cells [1]): can effectively reduce the death rate of cells caused by CORT; Culture time needed to exert effect on cell survival (PC12 cells [1]): 48 h; Expression of GR (GR): promote the expression of GR; Overexpression of cofilin-1 (cofilin-1): inhibit the overexpression

— US20240116939A1, “CHIRAL OR RACEMIC PYRIMIDINE-FUSED DIAZEPINONE DERIVATIVES, PREPARATION METHOD, AND APPLICATION THEREOF” (SUN YAT-SEN UNIVERSITY, priority 2021, published 2024)
